Entries after “also recorded” stand apart in the source; their conditions may differ.

Format in all cases: in vivo
Experiment [1] relates to Vglut2+ spinal interneurons expressing hM4Di DREADD. Description: DREADD experiment: T3 SCI immune suppression, Vglut2-Cre mice. To be noted: T3 SCI Vglut2-Cre mice with AAV8-hSyn-DIO-hM4D(Gi)-mCherry; CNO 1 mg/kg 2x/day, day 14-27 post-injury; day 28. The method, then: (§1) AAV8-hSyn-DIO-hM4Di-mCherry (AAV8-hSyn-DIO-hM4D(Gi)-mCherry; 7×10^12 vg/ml; UNC Vector Core) was injected into T5 and 7 levels of the spinal cord of Vglut2-Cre, Chat-Cre, or WT mice at P14 (0.8 μl/site, 0.25 mm lateral, 0.5 mm in depth). […] T3 SCI was induced at 8 weeks old, and then CNO (1.0 mg/kg body weight, i.p.; Sigma) was injected twice per day from day 14 to 27 post-injury (FIG. 3b). Small cohorts of mice from each colony were used as they reached the appropriate age for experimentation. […]
(§2) Spleens were harvested in Flow Cytometry Staining Buffer (eBioscience) and cell suspensions were made by expressing spleen tissue through a cell strainer using the plunger of a 10 ml syringe. […] Splenocytes were counted on a hemocytometer and 5×10^5 cells were incubated with Fc-block (anti-mouse-CD16/CD32 antibody; eBioscience). […] Splenocytes (10,000 events/sample) were analyzed using a FACSCanto flow cytometer with FACSDiva software (BD Biosciences). […] The number of each subset was calculated as the percentage of labeled cells multiplied by the total number of splenocytes.

Experiment [2] relates to hM4Di-expressing Vglut2+ spinal interneurons. As to the kind of experiment: Colorectal distension (CRD) and c-Fos analyses after chemogenetic silencing. To be noted: T3 SCI Vglut2-Cre mice injected with AAV-hSyn-DIO-hM4Di-mCherry; CNO 1.0 mg/kg i.p. 30 min before CRD, day 28 post-injury, vs vehicle. The procedure:
Colorectal distension was induced as previously reported3, 12, 13 with minor modification. A 4-French, 60 mm balloon-tipped catheter (Swan-Ganz monitoring catheter model 116F4; Edwards Life Sciences) was inserted 1.5 cm into the rectum before securing the catheter to the tail with surgical tape. The balloon was inflated with 0.2 ml of air for 30 sec then deflated 60 sec. This 90 sec cycle was repeated for 90 min. Mice were perfused 30 min after the final cycle of inflation. The number of c-Fos^+ cells were counted and analyzed in 2 representative horizontal spinal cord sections at T4-9 level from multiple SCI animals with or without CRD stimulation. The number of animals analyzed were: uninjured with or without CRD, n=3/group; T3 SCI (day 28) without CRD, n=3; T3 SCI (day 28) with CRD, n=5; Vglut2-Cre; cc-EGFP+T3 SCI (day 28) with CRD, n=3; Chat-Cre; cc-EGFP+T3 SCI (day 28) with CRD, n=3 (FIG. 7). To evaluate the effects of DREADD in mice with CRD-induced activation of visceral-sympathetic reflex, CNO (1.0 mg/kg body weight, i.p.; Sigma) or vehicle saline was injected into Vglut2-Cre+T3SCI+AAV8-hSyn-DIO-hM4D(Gi)-mCherry mice at day 28 post-injury, 30 min before the induction of CRD (n=3 each) (FIG. 9).

For experiment [3], the system named is Chat+ spinal interneurons expressing hM4Di DREADD. Description: DREADD experiment: T3 SCI immune suppression, Chat-Cre mice. To be noted: T3 SCI Chat-Cre mice with AAV8-hSyn-DIO-hM4D(Gi)-mCherry; CNO 1 mg/kg 2x/day, day 14-27 post-injury. The procedure:
as §1, §2

Consider `C[N+]1([O-])CCN(C2=Nc3cc(Cl)ccc3Nc3ccccc32)CC1` [CNO, clozapine-N-oxide], for which, in experiment [1], the Splenic atrophy entry is “reversed”; the “Total numbers of splenocytes, including CD4+ and CD8+ T cells and B220+ B cells” value is “restored to pre-injury levels”. The “c-Fos expression elicited by colorectal distension (silencing of hM4DGi+ spinal neurons)” value in experiment [2] was “reduces c-Fos expression; also recorded: significant silencing”. In experiment [3], the Immune protection entry is “modest non-significant immune protection”.
